Experimental data reported in patent US5214047A, “Tetracyclic quinazoline derivatives, effective as antiarrythmic agents” (priority 1987, dated 1993).
Where a name gives a salt, the structure may show the parent alone. Read-outs that look alike come from different tables or passages of the source.

System: QT interval
Assay: QT interval prolongation (ECG, class III action) in anesthetized guinea pigs
Type: in vivo, Pirbright white guinea pigs
Settings: for ED (20%): Cavia porcellus, read-out: Prolongation of the QT interval ED20%; for Potency relative to that of d-sotalol = 1.0: QT prolongation, ED20%
Description: The action of the novel substances has been tested as follows:
The experimental animals used were male and female Pirbright white guinea pigs weighing 300-500 g. 1.5 g/kg urethane i.p. were used for anesthesia. The substances were administered intravenously. The extremity lead II was recorded to measure the ECG conduction times and the heart rate. The measured variables were the QT and PQ intervals and the heart rate. 4-6 animals were used for each dose. The criterion for a class III action was an increase in the QT interval compared with the values before administration of the substance. A PQ increase and a large decrease in the heart rate were used as exclusion criteria. The ED20% is calculated from the linear relation between log dose (mg/kg) of the substance and the relative prolongation of the QT interval (Δ%).

[1] = guinea pigs, urethane anesthesia, intravenous, dose for 20% QT prolongation calculated from log dose (mg/kg) vs relative QT prolongation

Row | SMILES | ED (20%) [1] | Potency relative to that of d-sotalol = 1.0 (guinea pigs, intravenous) | ED (20%) (iv)
1 | CC1(C)CCN=C2c3ccccc3N3CCCC3(c3ccccc3)N21 (centres unmarked) [Example 44, 2,3,5,6,7,8-Hexahydro-4,4-dimethyl-6-phenyl-2H-pyrimido[1,2-c]pyrrolo[1,2-a]quinazoline hydrochloride] | 0.49 mg/kg | 7.4 | 
2 | Fc1ccc(C23CCCN2c2ccccc2C2=NCCN23)cc1 (centres unmarked) [Example 4, 5-(4-Fluorophenyl)-2,3,5,6,7,8-hexahydroimidazo[1,2-c]pyrrolo[1,2-a]quinazoline] | 0.21 mg/kg | 17 | 
3 | Clc1ccc2c(c1)N1CCCC1(c1ccccc1)N1CCCN=C21 (centres unmarked) [Example 37, 12-Chloro-2,3,5,6,7,8-hexahydro-6-phenyl-2H-pyrimido[1,2-c]pyrrolo[1,2-a]quinazoline hydrochloride] | 0.69 mg/kg | 5.3 | 
4 | Fc1ccc(C23CCCN2c2cc(Cl)ccc2C2=NCCN23)cc1 (centres unmarked) [Example 15, 11-Chloro-5-(4-fluorophenyl)-2,3,5,6,7,8-hexahydroimidazo[1,2-c]pyrrolo[1,2-a]quinazoline hydrochloride] | 0.43 mg/kg | 8.5 | 
5 | O=[N+]([O-])c1ccc(C23CCCN2c2ccccc2C2=NCCN23)cc1 (centres unmarked) [Example 21, 2,3,5,6,7,8-Hexahydro-5-(4-nitrophenyl)imidazo[1,2-c]pyrrolo[1,2-a]quinazoline hydrochloride] | 0.46 mg/kg | 8.0 | 
6 | CC(C)NC[C@@H](O)c1ccc(NS(C)(=O)=O)cc1 [d-sotalol, reference compound] | 3.6 mg/kg |  | 
7 | c1csc(C23CCCN2c2ccccc2C2=NCCCN23)c1 (centres unmarked) [Example 25] | 0.58 mg/kg | 6.2 | 
8 | CC1(C)CN=C2c3ccccc3N3CCCC3(c3ccccc3)N2C1 (centres unmarked) [Example 41, 2,3,5,6,7,8-Hexahydro-3,3-dimethyl-6-phenyl-2H-pyrimido[1,2-c]pyrrolo[1,2-a]quinazoline hydrochloride] | 0.46 mg/kg | 7.8 | 
9 | Clc1ccc(C23CCCN2c2ccccc2C2=NCCCN23)cc1 (centres unmarked) [Example 26, 6-(4-Chlorophenyl)-2,3,6,7,8,9-hexahydro-2H-pyrimido[1,2-c]pyrrolo[1,2-a]quinazoline] | 1.5 mg/kg | 2.4 | 
10 | CC1(C)CCN=C2c3ccccc3N3CCCC3(c3ccc([N+](=O)[O-])cc3)N21 (centres unmarked) [Example 47, 2,3,5,6,7,8-Hexahydro-4,4-dimethyl-6-(4-nitrophenyl)-2H-pyrimido[1,2-c]pyrrolo[1,2-a]quinazoline hydrochloride] | 0.52 mg/kg | 7.0 | 
11 | Clc1ccc(C23CCCN2c2ccccc2C2=NCCCN23)s1 (centres unmarked) [Example 33, 6-(2-(5-Chlorothienyl))-2,3,5,6,7,8-hexahydro-2H-pyrimido[1,2-c]pyrrolo[1,2-a]quinazoline] | 1.5 mg/kg | 2.4 | 
12 | CC1(C)CN=C2c3ccccc3N3CCCC3(c3ccc(F)cc3)N21 (centres unmarked) [Example 45, hydrochloride] | 0.59 mg/kg | 6.2 | 
13 | Cc1ccc(C23CCCN2c2ccccc2C2=NCCN23)cc1 (centres unmarked) [Example 1, 2,3,5,6,7,8-Hexahydro-5-(4-methylphenyl)imidazo[1,2-c]pyrrolo[1,2-a]quinazoline] | 1 mg/kg | 3.6 | 
14 | Clc1ccc(C23CCCN2c2ccccc2C2=NCCN23)c(Cl)c1 (centres unmarked) [Example 13, 5-(2,4-Dichlorophenyl)-2,3,5,6,7,8-hexahydroimidazo[1,2-c]pyrrolo[1,2-a]quinazoline hydrochloride] | 0.99 mg/kg | 3.7 | 
15 | Clc1ccc(C23CCCN2c2ccccc2C2=NCCCN23)cc1Cl (centres unmarked) [Example 28, 6-(3,4-Dichlorophenyl)-2,3,5,6,7,8-hexahydro-2H-pyrimido[1,2-c]pyrrolo[1,2-a]quinazoline] | 0.94 mg/kg | 3.9 | 
16 | Clc1ccc(C23CCCN2c2ccccc2C2=NCCN23)cc1 (centres unmarked) [Example 2] |  | 3.3 | 1.1 mg/kg
17 | Clc1ccc2c(c1)N1CCCC1(c1ccccc1)N1CCN=C21 (centres unmarked) [Example 11, 11-Chloro-2,3,5,6,7,8-hexahydro-5-phenylimidazo[1,2-c]pyrrolo[1,2-a]quinazoline] | 0.4 mg/kg | 9.0 | 
18 | O=[N+]([O-])c1ccc(C23CCCN2c2ccccc2C2=NCCCN23)cc1 (centres unmarked) [Example 34, 2,3,5,6,7,8-Hexahydro-6-(4-nitrophenyl)-2H-pyrimido[1,2-c]pyrrolo[1,2-a]quinazoline] | 0.61 mg/kg | 6.0 | 
